From ChEMBL document CHEMBL4680113, “Tigliane Diterpenoids as a New Type of Antiadipogenic Agents Inhibit GRα-Dexras1 Axis in Adipocytes” (J Med Chem, 2019) come the findings set out here.

In series [1] the test system is 3T3-L1. The series is described as follows: Lipid lowering activity in mouse 3T3-L1 cells assessed as reduction in adipogenic cocktail-induced triglyceride levels at 10 uM incubated for 6 days by GPO-POD assay. Conditions: for inhibition: time 6.0 day; for inhibition at 10 µM: 3T3-L1, 144 h, time 6 day. In kind it is functional.
In series [2] the test system is 3T3-L1. The series is described as follows: Toxicity in mouse 3T3-L1 cells assessed as reduction in cell viability at 10 uM incubated for 6 days by LDH release assay. In kind it is cell-based. Conditions: 3t3-l1, 144 h, time 6 day.
Series [3] has as its system 3T3-L1. The series is described as follows: Lipid lowering activity in mouse 3T3-L1 cells assessed as reduction in adipogenic cocktail-induced triglyceride levels at 1 to 10 uM by Oil-Red O staining. In kind it is functional, cell-based. As to conditions: dose 1-10 µM.
Series [4] deals with 3T3-L1. Nature of the series: Lipid increasing activity in mouse 3T3-L1 cells assessed as increase in adipogenic cocktail induced triglyceride levels at 1 uM incubated for 6 days by GPO-POD assay. In kind it is functional, cell-based. As to conditions: time 6.0 day.
Series [5] deals with 3T3-L1. The series is described as follows: Activation of GR-alpha in mouse 3T3-L1 cells assessed as increase in adipogenic cocktail-induced Dexras1 mRNA expression at 10 uM incubated for 4 hrs by RT-qPCR analysis. In kind it is cell-based. As to conditions: filed as agonist.
The test system of series [6] is 3T3-L1. Nature of the series: Activation of adipogenic cocktail-induced PPARgamma mRNA expression in mouse 3T3-L1 cells at 1 uM by RT-qPCR analysis. It counts as functional, cell-based.
The subject of series [7] is 3T3-L1. Nature of the series: Inhibition of adipogenic cocktail-induced GR-alpha nuclear translocation in mouse 3T3-L1 cells at 10 uM after 8 hrs by Western blot analysis. In kind it is cell-based. As to conditions: filed as antagonist.
Series [8] has as its system 3T3-L1. The series is described as follows: Inhibition of adipogenic cocktail-induced PPARgamma mRNA expression in mouse 3T3-L1 cells at 1 uM by RT-qPCR analysis. It counts as functional, cell-based.
In series [9] the test system is 3T3-L1. Nature of the series: Lipid lowering activity in mouse 3T3-L1 cells assessed as reduction in adipogenic cocktail induced triglyceride levels at 1 uM incubated for 6 days by GPO-POD assay. As to conditions: time 6.0 day. It counts as functional, cell-based.
For series [10], the system named is 3T3-L1. Nature of the series: Inhibition of GR-alpha in mouse 3T3-L1 cells assessed as reduction in adipogenic cocktail-induced Dexras1 mRNA expression at 10 uM incubated for 4 hrs by RT-qPCR analysis. As to conditions: filed as antagonist. It counts as cell-based.

Active and inactive are the calls of the source. The rule behind the calls is not given here.

Regarding `CCC(=O)O[C@@H]1[C@@H]2[C@@H](OC(C)=O)[C@@]34CO[C@@](C)([C@H](OC(C)=O)[C@@]2(OC(C)=O)C[C@@H]1C)[C@@H]3[C@@H]1[C@@H](C[C@]1(C)OC(C)=O)[C@@H](OC(=O)C(C)CC)C4=O` (some centres not stated), the inhibition entry in [1] is “inactive”.

As to `CC(=O)O[C@@H]1[C@]2(C)OC[C@]3(C(=O)C=C[C@H](C(C)(C)OC(C)=O)[C@@H]23)[C@H](OC(C)=O)[C@H]2[C@@H](OC(=O)c3cccnc3)[C@@H](C)C[C@@]21OC(C)=O`, the inhibition entry in series [1] was “inactive”.

`CC(=O)O[C@@H]1[C@H]2[C@@H](OC(C)=O)[C@](C)(OC(C)=O)C[C@]2(OC(C)=O)[C@H](OC(=O)c2ccccc2)[C@]2(C)OC[C@]13[C@H](OC(C)=O)C=C[C@H](C(C)(C)OC(C)=O)[C@@H]23`: the Activity entry in [2] is on record as “Non-Toxic”. Also, the inhibition entry in [3] is “Active”. Further, the inhibition at 10 µM in series [1] was > 60%.

On to `CC1=C[C@@H]2[C@H](C1=O)[C@H](O)C(C)=C[C@H]1[C@@H]3C(C)(C)[C@]3(OC(=O)C(C)C)[C@H](OC(=O)c3ccccc3)[C@@H](C)[C@]21O` [EUPHODENDRIANE A], for which the Activity entry in series [2] is reported as “Non-Toxic”. Also, in [3], the inhibition entry is “Active”. In addition, the inhibition at 10 µM in series [1] is > 50%.

Regarding `CCC(=O)O[C@@H]1[C@@H]2[C@@H](OC(=O)c3ccccc3)[C@@]3(COC(C)=O)[C@@H]([C@@H]4[C@H](C[C@H]3OC(C)=O)C4(C)C)[C@](C)(OC(C)=O)C(=O)[C@@]2(O)C[C@@H]1C`, in series [2], the Activity result is reported as “Non-Toxic”. Further, in series [3], the inhibition result was “Active”. The inhibition at 10 µM in series [1] was > 60%.

For `CC1=C[C@H]2[C@@H]3C(C)(C)[C@]3(OC(=O)C(C)C)[C@H](OC(=O)c3ccccc3)[C@@H](C)[C@]2(O)[C@@H]2C=C(C)C(=O)C2=C1`, the Activity entry in [2] is “Non-Toxic”. In addition, in series [3], the inhibition result is “Active”. Further, the inhibition at 10 µM in series [1] was > 50%.

Consider `CC(=O)O[C@@H]1[C@@H]2[C@@H](OC(C)=O)[C@@]34CO[C@@](C)([C@H](OC(C)=O)[C@@]2(OC(C)=O)C[C@@H]1C)[C@@H]3[C@@H]1[C@@H](C[C@]1(C)OC(C)=O)[C@@H](OC(=O)c1ccccc1)C4=O`, for which, in series [1], the inhibition result is “Active”.

Turning to `CCC(=O)O[C@@H]1[C@@H]2[C@@H](OC(C)=O)[C@@]34CO[C@@](C)([C@H](OC(C)=O)[C@@]2(OC(C)=O)C[C@@H]1C)[C@@H]3[C@@H]1[C@@H](C[C@]1(C)OC(C)=O)[C@@H](O)C4=O`, the Activity result in series [2] is “Non-Toxic”. The inhibition entry in series [3] and in [1] was “Active” in each case.

Regarding `C[C@H]1C[C@@H]2[C@H]([C@@H](O)C[C@@]3(C)[C@H]2CC[C@]3(O)C(=O)CO)[C@@]2(C)C=CC(=O)C=C12`, the result in [4], in [5] and in [6] was Active.

For the compound `CC(=O)O[C@@H]1[C@H]2[C@@H](OC(C)=O)[C@](C)(O)C[C@]2(OC(C)=O)[C@H](OC(=O)c2ccccc2)[C@]2(C)OC[C@]13[C@H](OC(C)=O)C=C[C@H](C(C)(C)OC(C)=O)[C@@H]23`, in [2], the Activity result was “Non-Toxic”. Further, the inhibition result in series [3] was “Active”. For the same compound, the inhibition at 10 µM in series [1] is > 60%.

With `CC(=O)O[C@@H]1[C@H]2[C@@H](OC(=O)c3cccnc3)[C@@H](C)C[C@]2(OC(C)=O)[C@@H](OC(C)=O)[C@]2(C)OC[C@]13C(=O)[C@H](O)[C@@H]1C[C@](C)(OC(C)=O)[C@@H]1[C@@H]23`, in series [2], the Activity result is given as “Non-Toxic”. Moreover, in [3], the inhibition entry is “Active”. Besides, in series [1], the inhibition entry was “inactive”.

On to `CC(=O)O[C@@H]1[C@H]2[C@@H](OC(=O)c3cccnc3)[C@@H](C)C[C@]2(OC(C)=O)[C@@H](OC(C)=O)[C@]2(C)OC[C@]13C(=O)[C@@H](O)[C@@H]1C[C@](C)(OC(C)=O)[C@@H]1[C@@H]23`, for which the inhibition entry in series [1] is “inactive”.

As to `CC(=O)O[C@@H]1[C@@H]2[C@@H](OC(C)=O)[C@@]34CO[C@@](C)([C@H](OC(C)=O)[C@@]2(OC(C)=O)C[C@@H]1C)[C@@H]3[C@@H]1[C@@H](C[C@]1(C)OC(C)=O)[C@@H](OC(=O)C(C)C)C4=O`, the inhibition entry in [1] is “inactive”.

For `CC(=O)OC[C@]12[C@H](OC(=O)c3ccccc3)[C@H]3[C@@H](OC(=O)c4cccnc4)[C@@H](C)C[C@]3(O)C(=O)[C@@](C)(OC(C)=O)[C@@H]1[C@@H]1[C@H](C[C@H]2OC(C)=O)C1(C)C`, in series [2], the Activity entry is “Non-Toxic”. The inhibition entry in series [3] was “Active”. Further, in [1], the inhibition at 10 µM was > 60%.

For `CC(=O)O[C@@H]1[C@H]2[C@@H](OC(=O)c3cccnc3)[C@@H](C)C[C@]2(OC(C)=O)[C@@H](OC(C)=O)[C@]2(C)OC[C@]13C(=O)[C@H](OC(=O)C(C)C)[C@@H]1C[C@](C)(OC(C)=O)[C@@H]1[C@@H]23`, in series [1], the inhibition entry is “inactive”.

Consider `CC#C[C@]1(O)CC[C@H]2[C@@H]3CCC4=CC(=O)CCC4=C3[C@@H](c3ccc(N(C)C)cc3)C[C@@]21C`, for which the inhibition entry in series [7], in series [8], in [9] and in [10] was “Active” each time.

As to `CC(=O)O[C@@H]1[C@H]2[C@@H](OC(=O)c3cccnc3)[C@@H](C)C[C@]2(OC(C)=O)[C@@H](OC(C)=O)[C@]2(C)OC[C@]13C(=O)[C@H](OC(=O)c1ccccc1)[C@@H]1C[C@](C)(OC(C)=O)[C@@H]1[C@@H]23`, the inhibition result in [1] was “inactive”.

Consider `CC(=O)O[C@@H]1[C@@H]2[C@@H](OC(C)=O)[C@@]34CO[C@@](C)([C@H](OC(C)=O)[C@@]2(OC(C)=O)C[C@@H]1C)[C@@H]3[C@@H]1[C@@H](C[C@]1(C)OC(C)=O)[C@H](O)C4=O`, for which the Activity entry in series [2] was “Non-Toxic”. The inhibition entry in series [3] was “Active”. For the same compound, the inhibition at 10 µM in [1] is > 60%.

For `CCC(=O)O[C@@H]1[C@@H]2[C@@H](OC(C)=O)[C@@]34CO[C@@](C)([C@H](OC(C)=O)[C@@]2(OC(C)=O)C[C@@H]1C)[C@@H]3[C@@H]1[C@@H](C[C@]1(C)OC(C)=O)[C@@H](OC(=O)C(C)C)C4=O`, the Activity result in [2] is recorded as “Non-Toxic”. The inhibition result in series [3] is “Active”. For the same compound, the inhibition at 10 µM in [1] is > 60%.

Regarding `CCCC(=O)O[C@@H]1[C@@H]2[C@@H](OC(C)=O)[C@@]34CO[C@@](C)([C@H](OC(C)=O)[C@@]2(OC(C)=O)C[C@@H]1C)[C@@H]3[C@@H](C(C)(C)OC(C)=O)C=C[C@H]4OC(C)=O`, the Activity result in [2] was “Non-Toxic”. The inhibition entry in [3] was “Active”. The inhibition at 10 µM in [1] was > 60%.

On to `CCC(=O)O[C@@H]1[C@@H]2[C@@H](OC(C)=O)[C@@]34CO[C@@](C)([C@H](OC(C)=O)[C@@]2(OC(C)=O)C[C@@H]1C)[C@@H]3[C@@H]1[C@@H](C[C@]1(C)OC(C)=O)[C@@H](OC(=O)c1ccccc1)C4=O`, for which the Activity result in [2] is given as “Non-Toxic”. In addition, the inhibition entry in [3] and in series [1] was “Active” each time.

With `CCC(=O)O[C@@H]1[C@@H]2[C@@H](OC(C)=O)[C@@]34CO[C@@](C)([C@H](OC(C)=O)[C@@]2(O)C[C@@H]1C)[C@@H]3[C@@H]1[C@@H](C[C@]1(C)OC(C)=O)[C@@H](OC(=O)c1ccccc1)C4=O`, the inhibition result in [1] is “inactive”.

As to `CC(=O)O[C@@H]1[C@@H]2[C@@H](OC(C)=O)[C@@]34CO[C@@](C)([C@H](OC(=O)c5ccccc5)[C@@]2(O)C[C@@H]1C)[C@@H]3[C@@H]1[C@@H](C[C@]1(C)OC(C)=O)[C@@H](OC(=O)c1ccccc1)C4=O`, the inhibition result in series [1] is “inactive”.

For the compound `CCCC(=O)O[C@@H]1[C@@H]2[C@@H](OC(C)=O)[C@@]34CO[C@@](C)([C@H](OC(C)=O)[C@@]2(OC(C)=O)C[C@@H]1C)[C@@H]3[C@@H]1[C@@H](C[C@]1(C)OC(C)=O)[C@@H](OC(=O)c1ccccc1)C4=O`, the inhibition entry in series [1] was “Active”.

As for `CCC(=O)O[C@@H]1[C@@H]2[C@@H](OC(C)=O)[C@@]34CO[C@@](C)([C@H](OC(=O)c5ccccc5)[C@@]2(OC(C)=O)C[C@@H]1C)[C@@H]3[C@@H](C(C)(C)OC(C)=O)C=CC4=O`, the inhibition entry in [1] is “Active”.

Regarding `CCC(=O)O[C@@H]1[C@@H]2[C@@H](OC(C)=O)[C@@]34CO[C@@](C)([C@@H](OC(=O)C(C)CC)[C@@]2(OC(C)=O)C[C@@]1(C)OC(C)=O)[C@@H]3[C@@H](C(C)(C)OC(C)=O)C=C[C@H]4OC(C)=O` (some centres not stated), the Activity result in series [2] is recorded as “Non-Toxic”. The inhibition entry in [3] was “Active”. Besides, the inhibition at 10 µM in series [1] is > 60%.
